The term logP denotes a log measure of how a compound divides between an organic and an aqueous phase. Read a high logP as higher lipophilicity. As a reminder, the chromatographic logP is a lipophilicity value derived from retention on a column.

Results on 80 compounds are retold here after US10683311B2 (priority 2015, dated 2020).

One data set can be described thus: log P by HPLC on reversed-phase column (C18), EEC Directive 79/831 Annex V.A8. The class given is physicochemical. The note with it: Method A: 40° C., 0.1% aqueous formic acid and acetonitrile. On the procedure:
In table 1, the log P values were determined in accordance with EEC Directive 79/831 Annex V.A8 by HPLC (High Performance Liquid Chromatography) on a reversed-phase column (C18), using the methods described below:
Method A: temperature: 40° C.; mobile phases: 0.1% aqueous formic acid and acetonitrile; linear gradient from 10% acetonitrile to 95% acetonitrile;
Method B: temperature: 40° C.; mobile phases: 0.001 molar ammonium acetate solution in water and acetonitrile; linear gradient from 10% acetonitrile to 95% acetonitrile.
Calibration was carried out using unbranched alkan-2-ones (comprising 3 to 16 carbon atoms) with known log P values (determination of the log P values by the retention times using linear interpolation between two successive alkanones). lambda-max-values were determined using UV-spectra from 200 nm to 400 nm and the peak values of the chromatographic signals.
As to `C[Si]1(c2ccccc2)c2c(F)cccc2Oc2c(Cl)nc3ccccc3c21` (centres unmarked) [6-chloro-11-fluoro-12-methyl-12-phenyl-12H-[1,4]benz-oxasilino[2,3-c]quinoline], the logP was 5.94.
`C[Si](C)(O)c1ccccc1Oc1cnc2ccccc2c1` [I.002]: the logP was found to be 2.82.
On the same count and under the same terms, with `C[Si](C)(O)c1c(F)cccc1Oc1cnc2ccccc2c1` [I.003] the figure was 2.90; with `CC[Si](C)(C)c1c(F)cccc1Oc1cnc2ccccc2c1` [I.005], 5.47.
In turn, `C=C[Si](C)(C)c1c(F)cccc1Oc1cnc2ccccc2c1` [I.006] displayed a log partition coefficient (logP) of 5.24.
The same measure, in the same setting: with `C[Si](C)(CCl)c1c(F)cccc1Oc1cnc2ccccc2c1` [I.007] the figure was 5.00; with `C[Si](C)(C)c1ccccc1Nc1cnc2ccccc2c1` [I.011], 3.46; with `C[Si](C)(C)c1ccccc1Cc1cnc2ccccc2c1` [I.012], 4.06.
As to `C[Si](C)(c1ccccc1)c1ccccc1Cc1cnc2ccccc2c1` [I.013], the logP was found to be 4.20.
In turn, `C[Si](C)(c1cccs1)c1ccccc1Cc1cnc2ccccc2c1` [I.015] showed a logP of 4.04.
The same measure, in the same setting: with `C[Si](C)(c1ccc(Oc2ccccc2)cc1)c1ccccc1Cc1cnc2ccccc2c1` [I.016] the figure was 5.62; with `C[Si](C)(C)c1c(F)cccc1C(=O)c1cnc2ccccc2c1` [I.017], 4.49.
Turning to `C[Si](C)(O)c1cc(F)ccc1Oc1cnc2c(Cl)cccc2c1` [I.018], the logP was found to be 3.50.
Still for that read-out and setting: with `C[Si](C)(C)c1ccccc1Oc1cnc2c(F)c(F)ccc2c1` [I.020] the figure was 5.39.
The compound `C[Si](C)(C)c1c(F)cccc1Oc1cnc2c(F)c(F)ccc2c1` [I.021] came in with a lipophilicity (logP) of 5.32.
In turn, `C[Si](C)(O)c1c(F)cccc1Oc1cnc2c(F)c(F)ccc2c1` [I.022] came in with a logP of 2.35.
`C[Si](C)(O)c1ccccc1Oc1cnc2c(F)c(F)ccc2c1` [I.023]: the logP turned out to be 3.27.
Take `Cc1nc2c(F)c(F)ccc2cc1Oc1cccc(F)c1[Si](C)(C)O` [I.025]: the lipophilicity (logP) came to 3.55.
`Cc1nc2c(F)c(F)ccc2cc1Oc1cccc(F)c1[Si](C)(C)c1ccccc1` [I.028] had a lipophilicity (logP) of 6.01.
Same read-out and setting: with `Cc1nc2c(F)c(F)ccc2cc1Oc1cc(N)ccc1[Si](C)(C)C` [I.029] the figure was 4.59.
`Cc1nc2c(F)c(F)ccc2cc1Oc1cccc(F)c1[Si](C)(C)c1cccs1` [I.030]: the logP worked out at 5.65.
`Cc1nc2c(F)c(F)ccc2cc1Oc1cc([N+](=O)[O-])ccc1[Si](C)(C)C` [I.031] registered a logP of 5.34.
On the same count and under the same terms, with `COc1cccc(Oc2cc3ccc(F)c(F)c3nc2C)c1[Si](C)(C)O` [I.033] the figure was 3.69.
The compound `Cc1nc2c(F)c(F)ccc2cc1Oc1cccc(Cl)c1[Si](C)(C)O` [I.034] registered a logP of 3.83.
The same measure, in the same setting: with `Cc1nc2c(F)c(F)ccc2cc1Oc1cc(F)ccc1[Si](C)(C)O` [I.035] the figure was 3.55.
Compound `Cc1nc2c(F)c(F)ccc2cc1Oc1cccc(OC(F)(F)F)c1[Si](C)(C)O` [I.036] displayed a log partition coefficient (logP) of 4.20.
Take `Cc1nc2c(F)c(F)ccc2cc1Oc1ccc(F)cc1[Si](C)(C)O` [I.037]: the logP came out at 3.55.
Still for that read-out and setting: with `COc1cccc(Oc2cc3ccc(F)c(F)c3nc2C)c1[Si](C)(C)C` [I.038] the figure was 5.85; with `CC[Si](C)(C)c1c(C#N)cccc1Oc1cc2ccc(F)c(F)c2nc1C` [I.039], 5.22.
The same measure, in the same setting: with `Cc1nc2c(F)c(F)ccc2cc1Cc1ccccc1[Si](C)(C)C` [I.040] the figure was 5.54; with `CC[Si](C)(C)c1ccccc1Oc1cnc2c(c1)CCCC2` [I.041], 3.68.
Still for that read-out and setting: with `Cc1c(Oc2cccc(F)c2[Si](C)(C)C)cnc2ccccc12` [I.042] the figure was 5.62; with `CC[Si](C)(C)c1c(C#N)cccc1Oc1c(C)nc2c(F)c(F)ccc2c1[Si](C)(C)CC` [I.043], 7.36.
With `C=Cc1nc2ccccc2cc1Oc1cccc(F)c1[Si](C)(C)C` [I.044], the log partition coefficient (logP) turned out to be 6.30.
Compound `C[Si](C)(C)c1c(F)cccc1Oc1cc2ccccc2nc1-c1ccccc1` [I.045] displayed a log partition coefficient (logP) of 6.40. This logP and that of the compound before are within 0.2 log units of each other.
Still for that read-out and setting: with `Cc1nc2ccccc2cc1Oc1cccc(F)c1[Si](C)(C)C` [I.046] the figure was 5.08.
In the case of `Cc1nc2ccccc2cc1Oc1ccccc1[Si](C)(C)O` [I.048], the logP is listed as 2.16.
In turn, `Cc1nc2ccccc2cc1Oc1cccc(F)c1[Si](C)(C)O` [I.049] yielded a log partition coefficient (logP) of 2.41.
`Cc1nc2ccccc2cc1Oc1cccc(OC(F)(F)F)c1[Si](C)(C)O` [I.050]: the logP is 3.35.
With `Cc1nc2ccccc2cc1Oc1cccc(Cl)c1[Si](C)(C)O` [I.051], the logP is reported as 2.80.
As for `CC[Si](C)(C)c1c(F)cccc1Oc1cc2ccccc2nc1C` [I.052], the logP stood at 5.62.
Still for that read-out and setting: with `Cc1nc2ccccc2cc1Oc1cccc(F)c1[SiH](C)C` [I.053] the figure was 4.56.
On the same count and under the same terms, with `Cc1nc2ccccc2cc1Nc1ccccc1[Si](C)(C)C` [I.054] the figure was 2.46.
Still for that read-out and setting: with `Cc1nc2ccccc2cc1Nc1ccc(F)cc1[Si](C)(C)C` [I.055] the figure was 2.63.
In the case of `CCN(c1ccccc1[Si](C)(C)C)c1cc2ccccc2nc1C` [I.056], the logP came out at 3.16.
Same read-out and setting: with `CC[Si](C)(C)c1c(F)cccc1Oc1cc2ccccc2[n+]([O-])c1C` [I.057] the figure was 4.54; with `Cc1c(Nc2ccccc2[Si](C)(C)C)cc2ccccc2[n+]1[O-]` [I.058], 3.62.
Consider `C[Si](C)(C)c1c(F)cccc1Oc1cc2ccccc2nc1O` [I.059], for which the logP was determined as 3.85.
Same read-out and setting: with `CCOc1nc2ccccc2cc1Oc1cccc(F)c1[Si](C)(C)C` [I.060] the figure was 6.79; with `C[Si](C)(C)c1c(F)cccc1Oc1cc2ccccc2nc1C1CC1` [I.061], 6.90.
`C[Si](C)(C)c1c(F)cccc1Oc1cc2ccccc2nc1Cl` [I.063] gave a logP of 5.90.
The same measure, in the same setting: with `CSc1nc2ccccc2cc1Oc1cccc(F)c1[Si](C)(C)C` [I.064] the figure was 6.79; with `C[Si](C)(C)c1c(F)cccc1Oc1cc2ccccc2nc1C(F)F` [I.065], 5.45.
With `C[Si](C)(C)c1c(F)cccc1Nc1cc2ccccc2nc1C(F)F` [I.066], the logP amounted to 5.68.
On to `C[Si](C)(C)c1c(F)cccc1Oc1cc2ccccc2nc1-c1ccsc1` [I.067], for which the logP was found to be 6.66.
Still for that read-out and setting: with `C[Si](C)(C)c1ccccc1Oc1cnc2ccccc2n1` [I.068] the figure was 5.05; with `C[Si](C)(C)c1c(F)cccc1Oc1cnc2ccccc2n1` [I.069], 5.22; with `C[Si](C)(O)c1ccccc1Oc1cnc2ccccc2n1` [I.070], 2.86.
Turning to `C[Si](C)(O)c1c(F)cccc1Oc1cnc2ccccc2n1` [I.071], the logP is listed as 3.01.
Take `CC(C)(C)[Si](C)(C)c1ccccc1Oc1cnc2ccccc2n1` [I.072]: the logP turned out to be 6.30.
`CC(C)C[Si](C)(C)c1ccccc1Oc1cnc2ccccc2n1` [I.073] yielded a lipophilicity (logP) of 6.33. The logP values of the last two compounds are within 0.2 log units of each other.
`CC[Si](CC)(CC)c1ccccc1Oc1cnc2ccccc2n1` [I.074] returned a lipophilicity (logP) of 6.43.
Same read-out and setting: with `CC(C)[Si](C)(C)c1ccccc1Oc1cnc2ccccc2n1` [I.075] the figure was 5.91.
On the same count and under the same terms, with `CC[Si](C)(C)c1ccccc1Oc1cnc2ccccc2n1` [I.076] the figure was 5.48.
Still for that read-out and setting: with `CC[Si](C)(C)c1ccccc1Oc1cnc2c(F)c(F)ccc2n1` [I.077] the figure was 5.62; with `C[Si](C)(C)c1c(F)cccc1Oc1cnc2c(F)c(F)ccc2n1` [I.078], 5.20; with `C[Si](C)(C)c1ccccc1Oc1cnc2c(F)c(F)ccc2n1` [I.079], 5.28.
Regarding `C[Si](C)(c1ccccc1Oc1cnc2c(F)c(F)ccc2n1)C1CCCCC1` [I.080], the logP is reported as 6.94.
In the case of `C[Si](C)(O)c1ccccc1Oc1cnc2c(F)c(F)ccc2n1` [I.081], the logP amounted to 3.23.
Same read-out and setting: with `C[Si](C)(O)c1c(F)cccc1Oc1cnc2c(F)c(F)ccc2n1` [I.082] the figure was 3.33; with `C[Si](C)(F)c1c(F)cccc1Oc1cnc2c(F)c(F)ccc2n1` [I.083], 5.01.
`C[Si](C)(C)c1ccccc1Nc1cnc2c(F)c(F)ccc2n1` [I.084] displayed a logP of 4.49.
For the compound `Cc1nc2c(F)c(F)ccc2nc1Oc1cccc(F)c1[Si](C)(C)O` [I.085], the lipophilicity (logP) is listed as 3.67.
On the same count and under the same terms, with `Cc1nc2c(F)c(F)ccc2nc1Oc1ccccc1[Si](C)(C)C` [I.086] the figure was 5.46; with `Cc1nc2c(F)c(F)ccc2nc1Oc1ccccc1[Si](C)(C)O` [I.087], 3.35; with `Cc1nc2c(F)c(F)ccc2nc1Oc1cccc(F)c1[Si](C)(C)C` [I.088], 5.65.
On the same count and under the same terms, with `Cc1nc2c(F)c(F)ccc2nc1Oc1c(F)cccc1[Si](C)(C)O` [I.089] the figure was 3.62.

The data set is the same for the next values; noted with them: Method B: 40° C., 0.001 molar ammonium acetate solution in water and acetonitrile.
`C[Si](C)(O)c1ccccc1Nc1cnc2ccccc2c1` [I.009]: the logP was determined as 3.20.

The same data set, now with this note: reversed-phase HPLC column (C18), Method A: 40° C., 0.1% aqueous formic acid and acetonitrile.
In turn, `C[SiH](c1ccccc1)c1c(Oc2cccc(F)c2)c(Cl)nc2ccccc12` (centres unmarked) [2-chloro-3-(3-fluorophenoxy)-4-[methyl(phenyl)silyl]quinoline] registered a chromatographic logP of 5.9.
Regarding `C[Si](C)(c1ccc(Cl)cc1)c1ccccc1Cc1cnc2ccccc2c1` [I.014, 3-{2-[(4-chlorophenyl)(dimethyl)silyl]benzyl}quinoline], the chromatographic logP worked out at 4.74.
